Data taken from patent US11000033B2, “Ketone or oxime compound, and herbicide” (NISSAN CHEMICAL CORPORATION, priority 2014, dated 2021).

Legend:
Assay type in all cases: in vivo
[1] = system: Monochoria vaginalis; assay: Test Example 1: herbicidal activity, application before weed generation in submerged conditions (symbol C); conditions: application herbicide amount 320 g/ha
In short: (§1)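 Compound emulsion was diluted to a set herbicide amount and applied to the water surface on the sowing day, into submerged (4 cm) alluvial-soil pots sown with mixed weed seeds and transplanted 2.5-leaf rice. Pots were held in a 25–30 °C greenhouse, and weeds were scored 0–5 by herbicidal ratio after 3 weeks.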

[2] = system: corn; assay: Test Example 5: effect on crop by foliage application, plastic box (symbol c); conditions: 320 g/ha, 3 weeks after application
In short: (§2)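 Soil: sterilized diluvial. Container: plastic box, 21 × 13 cm, 7 cm deep. Sowing: spot-like, ~1.5 cm cover. Growth: greenhouse, 25° C. to 30° C.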

[3] = system: Lolium multiflorum Lam.; assay: Test Example 5: herbicidal effect by foliage application, plastic box (symbol K); conditions: 320 g/ha, 3 weeks after application
In short: (§3)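 Visual herbicidal score, taken three weeks post-application, of seedlings sprayed on the foliage with water-diluted emulsion at a predetermined amount; plants were 14 days old, greenhouse-raised at 25° C. to 30° C.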

[4] = system: Digitaria ciliaris; assay: Test Example 4: herbicidal effect by soil treatment (symbol F); conditions: application herbicide amount 320 g/ha
In short: (§4)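 Seeds were sown in sterilized diluvial soil, covered with about 1.5 cm of soil, and the soil surface was sprayed with a water-diluted emulsion of the compound at a predetermined rate. Plants grew in a greenhouse at 25° C. to 30° C.; effects were scored visually 3 weeks after application.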

[5] = system: Echinochloa oryzacola Vasing.; assay: Test Example 1: herbicidal activity, application before weed generation in submerged conditions (symbol A); conditions: application herbicide amount 320 g/ha
In short: as §1

[6] = system: Echinochloa oryzacola Vasing.; assay: Test Example 2: herbicidal activity, application during weed generation in submerged conditions (symbol A); conditions: Table 23; application herbicide amount 320 g/ha; grade 0-5 by criteria of Test Example 1
In short: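 Visual herbicidal ratings, taken three weeks after dosing, reflect post-emergence water-surface application to seedlings at one to two leaves. Conditions: co-sown weeds in alluvial soil flooded to 4 cm, greenhouse held at 25° C. to 30° C.; compound given as water-diluted emulsion at a fixed herbicide amount.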

[7] = system: rapeseed; assay: Test Example 5: effect on crop by foliage application, plastic box (symbol g); conditions: 320 g/ha, 3 weeks after application
In short: as §2

[8] = system: beet; assay: Test Example 5: effect on crop by foliage application, plastic box (symbol f); conditions: 320 g/ha, 3 weeks after application
In short: as §2

[9] = system: Veronica persica; assay: Test Example 4: herbicidal effect by soil treatment (symbol R); conditions: application herbicide amount 320 g/ha
In short: as §4

[10] = system: Avena fatua; assay: Test Example 5: herbicidal effect by foliage application, plastic box (symbol I); conditions: 320 g/ha, 3 weeks after application
In short: as §3

[11] = system: Veronica persica; assay: Test Example 5: herbicidal effect by foliage application, plastic box (symbol R); conditions: 320 g/ha, 3 weeks after application
In short: as §3

Compound: CON=C(C)CC1CC(O)=C(c2c(C)cc(-c3ccsc3)cc2C)C1=O (stereo not drawn) [6-106]
- Herbicidal effect grade, C: Monochoria vaginalis [1]: 4 (Herbicidal ratio of 70% or higher and lower than 90%)
- c: corn, effect on crop (criteria of Test Example 1) [2]: 5 (Herbicidal ratio of 90% or more (almost completely withered))
- K: Lolium multiflorum Lam., herbicidal effect (criteria of Test Example 1) [3]: 5 (Herbicidal ratio of 90% or more (almost completely withered))
- Herbicidal effect grade, F: Digitaria ciliaris [4]: 5 (Herbicidal ratio of 90% or more (almost completely withered))
- Herbicidal effect grade, A: Echinochloa oryzacola Vasing. [5]: 5 (Herbicidal ratio of 90% or more (almost completely withered))
- Herbicidal effect grade, A: Echinochloa oryzacola Vasing. [6]: 5 (Herbicidal ratio of 90% or more (almost completely withered))
- g: rapeseed, effect on crop (criteria of Test Example 1) [7]: 5 (Herbicidal ratio of 90% or more (almost completely withered))
- f: beet, effect on crop (criteria of Test Example 1) [8]: 0 (Herbicidal ratio of 5% or lower (almost no effect))
- Herbicidal effect grade, R: Veronica persica [9]: 0 (Herbicidal ratio of 5% or lower (almost no effect))
- I: Avena fatua, herbicidal effect (criteria of Test Example 1) [10]: 3 (Herbicidal ratio of 40% or higher and lower than 70%)
- R: Veronica persica, herbicidal effect (criteria of Test Example 1) [11]: 3 (Herbicidal ratio of 40% or higher and lower than 70%)

Compound: CON=C(C)CC1CC(O)=C(c2c(F)cc(C)cc2OC)C1=O (stereo not drawn) [6-108]
- Herbicidal effect grade, C: Monochoria vaginalis [1]: 0 (Herbicidal ratio of 5% or lower (almost no effect))
- c: corn, effect on crop (criteria of Test Example 1) [2]: 5 (Herbicidal ratio of 90% or more (almost completely withered))
- K: Lolium multiflorum Lam., herbicidal effect (criteria of Test Example 1) [3]: 5 (Herbicidal ratio of 90% or more (almost completely withered))
- Herbicidal effect grade, F: Digitaria ciliaris [4]: 5 (Herbicidal ratio of 90% or more (almost completely withered))
- Herbicidal effect grade, A: Echinochloa oryzacola Vasing. [5]: 4 (Herbicidal ratio of 70% or higher and lower than 90%)
- Herbicidal effect grade, A: Echinochloa oryzacola Vasing. [6]: 4 (Herbicidal ratio of 70% or higher and lower than 90%)
- g: rapeseed, effect on crop (criteria of Test Example 1) [7]: 5 (Herbicidal ratio of 90% or more (almost completely withered))
- f: beet, effect on crop (criteria of Test Example 1) [8]: 0 (Herbicidal ratio of 5% or lower (almost no effect))
- Herbicidal effect grade, R: Veronica persica [9]: 3 (Herbicidal ratio of 40% or higher and lower than 70%)
- I: Avena fatua, herbicidal effect (criteria of Test Example 1) [10]: 5 (Herbicidal ratio of 90% or more (almost completely withered))
- R: Veronica persica, herbicidal effect (criteria of Test Example 1) [11]: 2 (Herbicidal ratio of 20% or higher and lower than 40%)

Compound: CON=C(C)CC1CC(OC(=O)N(C)C)=C(c2c(C)cc(C)cc2OC)C1=O (stereo not drawn) [6-109]
- Herbicidal effect grade, C: Monochoria vaginalis [1]: 3 (Herbicidal ratio of 40% or higher and lower than 70%)
- c: corn, effect on crop (criteria of Test Example 1) [2]: 5 (Herbicidal ratio of 90% or more (almost completely withered))
- K: Lolium multiflorum Lam., herbicidal effect (criteria of Test Example 1) [3]: 5 (Herbicidal ratio of 90% or more (almost completely withered))
- Herbicidal effect grade, F: Digitaria ciliaris [4]: 5 (Herbicidal ratio of 90% or more (almost completely withered))
- Herbicidal effect grade, A: Echinochloa oryzacola Vasing. [5]: 5 (Herbicidal ratio of 90% or more (almost completely withered))
- Herbicidal effect grade, A: Echinochloa oryzacola Vasing. [6]: 5 (Herbicidal ratio of 90% or more (almost completely withered))
- g: rapeseed, effect on crop (criteria of Test Example 1) [7]: 4 (Herbicidal ratio of 70% or higher and lower than 90%)
- f: beet, effect on crop (criteria of Test Example 1) [8]: 0 (Herbicidal ratio of 5% or lower (almost no effect))
- Herbicidal effect grade, R: Veronica persica [9]: 0 (Herbicidal ratio of 5% or lower (almost no effect))
- I: Avena fatua, herbicidal effect (criteria of Test Example 1) [10]: 5 (Herbicidal ratio of 90% or more (almost completely withered))
- R: Veronica persica, herbicidal effect (criteria of Test Example 1) [11]: 1 (Herbicidal ratio of 5% or higher and lower than 20%)

Compound: CON=C(C)CC1CC(OC(=O)N2CCCC2)=C(c2c(C)cc(C)cc2OC)C1=O (stereo not drawn) [6-110]
- Herbicidal effect grade, C: Monochoria vaginalis [1]: 0 (Herbicidal ratio of 5% or lower (almost no effect))
- c: corn, effect on crop (criteria of Test Example 1) [2]: 5 (Herbicidal ratio of 90% or more (almost completely withered))
- K: Lolium multiflorum Lam., herbicidal effect (criteria of Test Example 1) [3]: 5 (Herbicidal ratio of 90% or more (almost completely withered))
- Herbicidal effect grade, F: Digitaria ciliaris [4]: 0 (Herbicidal ratio of 5% or lower (almost no effect))
- Herbicidal effect grade, A: Echinochloa oryzacola Vasing. [5]: 5 (Herbicidal ratio of 90% or more (almost completely withered))
- Herbicidal effect grade, A: Echinochloa oryzacola Vasing. [6]: 5 (Herbicidal ratio of 90% or more (almost completely withered))
- g: rapeseed, effect on crop (criteria of Test Example 1) [7]: 4 (Herbicidal ratio of 70% or higher and lower than 90%)
- f: beet, effect on crop (criteria of Test Example 1) [8]: 0 (Herbicidal ratio of 5% or lower (almost no effect))
- Herbicidal effect grade, R: Veronica persica [9]: 0 (Herbicidal ratio of 5% or lower (almost no effect))
- I: Avena fatua, herbicidal effect (criteria of Test Example 1) [10]: 5 (Herbicidal ratio of 90% or more (almost completely withered))
- R: Veronica persica, herbicidal effect (criteria of Test Example 1) [11]: 2 (Herbicidal ratio of 20% or higher and lower than 40%)

Compound: CON=C(C)CC1CC(OC(=O)N2CCCCC2)=C(c2c(C)cc(C)cc2OC)C1=O (stereo not drawn) [6-111]
- Herbicidal effect grade, C: Monochoria vaginalis [1]: 2 (Herbicidal ratio of 20% or higher and lower than 40%)
- c: corn, effect on crop (criteria of Test Example 1) [2]: 5 (Herbicidal ratio of 90% or more (almost completely withered))
- K: Lolium multiflorum Lam., herbicidal effect (criteria of Test Example 1) [3]: 5 (Herbicidal ratio of 90% or more (almost completely withered))
- Herbicidal effect grade, F: Digitaria ciliaris [4]: 4 (Herbicidal ratio of 70% or higher and lower than 90%)
- Herbicidal effect grade, A: Echinochloa oryzacola Vasing. [5]: 5 (Herbicidal ratio of 90% or more (almost completely withered))
- Herbicidal effect grade, A: Echinochloa oryzacola Vasing. [6]: 5 (Herbicidal ratio of 90% or more (almost completely withered))
- g: rapeseed, effect on crop (criteria of Test Example 1) [7]: 4 (Herbicidal ratio of 70% or higher and lower than 90%)
- f: beet, effect on crop (criteria of Test Example 1) [8]: 0 (Herbicidal ratio of 5% or lower (almost no effect))
- Herbicidal effect grade, R: Veronica persica [9]: 0 (Herbicidal ratio of 5% or lower (almost no effect))
- I: Avena fatua, herbicidal effect (criteria of Test Example 1) [10]: 5 (Herbicidal ratio of 90% or more (almost completely withered))
- R: Veronica persica, herbicidal effect (criteria of Test Example 1) [11]: 2 (Herbicidal ratio of 20% or higher and lower than 40%)

Compound: CON=C(C)C(C)C1CC(O)=C(c2c(C)cc(Br)cc2OC)C1=O (stereo not drawn) [6-113]
- Herbicidal effect grade, C: Monochoria vaginalis [1]: 0 (Herbicidal ratio of 5% or lower (almost no effect))
- c: corn, effect on crop (criteria of Test Example 1) [2]: 5 (Herbicidal ratio of 90% or more (almost completely withered))
- K: Lolium multiflorum Lam., herbicidal effect (criteria of Test Example 1) [3]: 5 (Herbicidal ratio of 90% or more (almost completely withered))
- Herbicidal effect grade, F: Digitaria ciliaris [4]: 5 (Herbicidal ratio of 90% or more (almost completely withered))
- Herbicidal effect grade, A: Echinochloa oryzacola Vasing. [5]: 4 (Herbicidal ratio of 70% or higher and lower than 90%)
- Herbicidal effect grade, A: Echinochloa oryzacola Vasing. [6]: 5 (Herbicidal ratio of 90% or more (almost completely withered))
- g: rapeseed, effect on crop (criteria of Test Example 1) [7]: 4 (Herbicidal ratio of 70% or higher and lower than 90%)
- f: beet, effect on crop (criteria of Test Example 1) [8]: 0 (Herbicidal ratio of 5% or lower (almost no effect))
- Herbicidal effect grade, R: Veronica persica [9]: 0 (Herbicidal ratio of 5% or lower (almost no effect))
- I: Avena fatua, herbicidal effect (criteria of Test Example 1) [10]: 5 (Herbicidal ratio of 90% or more (almost completely withered))
- R: Veronica persica, herbicidal effect (criteria of Test Example 1) [11]: 0 (Herbicidal ratio of 5% or lower (almost no effect))
